Measured values published in patent publication US9750742B2, “Small molecular inhibitors of RAD51 recombinase and methods thereof” (Drexel University, priority 2011, dated 2017).
Entries after “also recorded” stand apart in the source; their conditions may differ.

Assays:
RAD51 [1] = molecular target: T1, RAD51 (Homo sapiens, UniProt Q06609); assay: D-loop assay for RAD51; assay type: biochemical; settings: compounds 100 μM; RAD51 1 μM
T1 construct: made in house
T1 sequence (Q06609 1-339): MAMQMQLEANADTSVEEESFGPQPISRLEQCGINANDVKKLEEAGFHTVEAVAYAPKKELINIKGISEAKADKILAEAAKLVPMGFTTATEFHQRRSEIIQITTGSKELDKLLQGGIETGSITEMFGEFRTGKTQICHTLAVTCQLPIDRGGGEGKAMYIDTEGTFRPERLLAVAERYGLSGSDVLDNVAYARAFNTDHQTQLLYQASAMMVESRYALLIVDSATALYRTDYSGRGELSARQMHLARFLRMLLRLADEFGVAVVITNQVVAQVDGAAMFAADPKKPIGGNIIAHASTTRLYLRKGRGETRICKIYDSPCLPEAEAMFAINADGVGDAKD
Protocol: When indicated, chemical compounds in question were added in specified concentrations and incubation was continued for 30 min at 37° C. D-loop formation was initiated by addition of supercoiled pUC19 dsDNA (50 μM, nt) and continued for 15 min. Reactions were stopped by addition of SDS to 1% (w/v) and proteinase K to 880 μg ml^−1 followed by incubation for 15 min at 37° C. […] The yield of joint molecules was expressed as a percentage of the total plasmid DNA.
The reaction was deproteinized and analyzed as described above.
IC50 values were calculated using GraphPad Prism V5.0 software and the sigmoidal dose-response function. The data were obtained from three independent repeats of experiments.

RecA = molecular target: T2, RecA (Escherichia coli, UniProt P0A7G6); assay: Branch migration assay, RecA; assay type: biochemical, E. coli; settings: B02 10-100 μM
T2 construct: purchased USB Inc. (Cleveland, Ohio)
T2 sequence (P0A7G6 whole entry): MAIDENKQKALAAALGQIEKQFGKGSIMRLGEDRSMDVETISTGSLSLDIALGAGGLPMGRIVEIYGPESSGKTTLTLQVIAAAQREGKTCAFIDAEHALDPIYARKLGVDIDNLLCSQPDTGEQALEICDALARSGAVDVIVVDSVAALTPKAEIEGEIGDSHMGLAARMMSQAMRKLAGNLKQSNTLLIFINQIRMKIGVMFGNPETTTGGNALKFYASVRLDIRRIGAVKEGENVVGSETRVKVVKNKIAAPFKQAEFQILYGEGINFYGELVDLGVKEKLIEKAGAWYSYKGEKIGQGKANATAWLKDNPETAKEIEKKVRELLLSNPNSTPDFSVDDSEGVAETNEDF
Protocol: Branch migration was initiated by addition of ^32P-labeled 5′-joint molecules (0.1 nM, molecules) that were produced by RecA-promoted reaction and was carried out for 30 min. The DNA products were deproteinized and analyzed in 1.5% agarose-TAE gels and quantified using a Storm 840 PhosphorImager (GE Healthcare).

HEK cells = assay: Clonogenic survival, HEK cells sensitivity to cisplatin; assay type: cell-based, human
Protocol: (§1) Briefly, MEF cells were trypsinized and the appropriate number of cells was replated on 10 cm tissue culture dishes. […] Cells were fixed and stained using staining solution (0.05% crystal violet, 50% methanol in PBS); colonies were counted using an AlphaImager 3400 (Alpha Innotech Inc.). The percent of survival was determined as described (Hall & Giccia, 2005, “Radiobiology for the Radiologist”, 6th Ed., Philadelphia, Pa.: Lippincott Williams & Wilkins, pp. 30-45). The percent of survival obtained from untreated cells was normalized to 100% survival.
To suppress RAD51 expression, HEK cells were transfected with 100 nM RAD51 siRNA (sc-36361; Santa Cruz Biotechnology). Briefly, cells (1×10^6) were seeded in a 3.5-cm tissue culture plate and incubated overnight, then the medium was removed and the cell layer was washed three times with PBS. Transfection was carried out by adding 1 ml transfection solution containing 100 pmol […] siRNA and 10 μl siRNA transfection reagent (sc-29528; Santa Cruz Biotechnology) in Opti-MEM I Reduced-Serum medium (Invitrogen) to each plate. Six to 7 hours after transfection the medium was replaced with fresh DMEM+. Twenty-four, 48, 72, and 96 h after transfection, the RAD51 level was determined using Western blotting. As a specificity control scrambled siRNA (sc-37007; Santa Cruz Biotechnology) was used instead of RAD51 siRNA.

RAD51 [2] = assay: Western blotting, RAD51 expression level; assay type: cell-based, human; settings: B02 20 μM versus no treatment
Protocol: The pellets were washed three times with cold PBS and then resuspended in lysis buffer containing 50 mM HEPES, pH 7.5, 50 mM NaCl, 5 mM EDTA, 1% Triton X-100, 50 mM NaF, and 10 mM Na4P2O7, 1 mM PMSF, and proteinase inhibitor cocktail (Roche Applied Science) for 30 min at 4° C. The cell lysates were centrifuged at 16,000×g, for 15 min at 4° C., and then the supernatants were collected and protein concentrations were determined using the Bradford assay. Aliquots containing 50 Ξg of total protein were analyzed by 12% SDS-PAGE. […]
Then, both pCBASce-transfected and untransfected cells were trypsinized and resuspended in DMEM supplemented with 10% FBS, 100 units/ml penicillin and 100 μg/ml streptomycin. […] The supernatants were collected and protein concentrations were determined by the Bradford assay using bovine serum albumin (BSA) as a standard. […] Immunoblot signals were detected using Enhanced Chemiluminescence (ECL) reagent (Pierce). […]

[3] = tested on: RAD51 foci in 293 human embryonic kidney (HEK) cells; assay: RAD51 foci formation; assay type: cell-based
Protocol: 2×10^5 log phase HEK-GFP cells were seeded in 3.5-cm tissue culture plates on glass coverslips pretreated with 0.01% poly-L-lysine (Sigma) and grown overnight. […] Cells were then exposed to 0.5 Gy IR using a Primus Linear Accelerator (Siemens) at […], 3 Gy/min followed by a 2-h incubation at 37° C. Cells were washed with phosphate-buffered saline (PBS) (8.1 mM Na2HPO4, 1.47 mM KH2PO4, 138 mM NaCl and 2.7 mM KCl, pH 7.4), extracted with PBS containing 0.2% Triton X-100 and 1 mM phenylmethanesulfonylfluoride (PMSF) for 5 min at 4° C., and fixed with PBS supplemented with 3.0% formaldehyde and 2.0% sucrose for 10 min. Cells were permeabilized with PBS containing 0.5% Triton X-100 for 5 min and blocked with PBS containing 3% BSA and 0.05% Tween 20 for 30 min at 23° C. Cells were treated with the polyclonal rabbit RAD51 antibodies (1:500 dilution) (a gift from Dr. Golub, Yale University) in PBS containing 3% BSA and 0.05% Triton X-100 overnight at 4° C., and then with Alexa Fluor 488 donkey antirabbit IgG (H+L) antibodies (1:1000 dilution) (Invitrogen) for 1 h at 23° C. followed by a 5-min staining with 500 ng/ml 4′,6-diamidino-2-phenylindole (DAPI) in PBS containing 0.05% Tween 20. Samples were washed in PBS containing 0.05% Tween 20, mounted in VectaShield™ (Vector Laboratories), and sealed with nail polish. The fluorescence images were obtained using an Olympus IX70 inverted microscope and iVision-Mac™ software (BioVision).

MEF cells = assay: Clonogenic survival assay, MEF; assay type: cell-based, mouse
Protocol: as §1

Structure (SMILES): O=c1c2ccccc2nc(/C=C/c2cccnc2)n1Cc1ccccc1 [Compound B02, (E)-3-benzyl-2-(2-(pyridin-3-yl)vinyl)quinazolin-4(3H)-one]
- Joint Molecules (%) (RAD51 [1]): 6.0 ± 0.5%
- inhibition of branch migration activity of RecA (RecA): did not inhibit
- incubation time at which maximal sensitivity was reached (HEK cells; B02 5 μM, cisplatin 16 μM): 16 h
- incubation time required to increase the sensitivity of HEK cells for cisplatin (HEK cells; B02 5 μM, cisplatin 16 μM): 10 to 12 h
- sensitization of HEK cells to cisplatin (HEK cells; B02 combined with RAD51 siRNA versus each alone): more strongly sensitized
- expression of RAD51 (RAD51 [2]): comparable
- inhibition of IR-induced RAD51 foci formation, in words ([3]; B02 20 μM): inhibitory effect was smaller
- decrease of average number of RAD51 foci per nucleus ([3]; B02 50 μM): 4.4 fold
- decrease of fraction of cells with RAD51 foci ([3]; B02 50 μM): 3.8 fold
- fraction of cells with RAD51 foci (≧1 focus) ([3]; B02 50 μM, 0.5 Gy IR, without B02 72±10%): 19±6%
- average number of RAD51 foci per nucleus ([3]; B02 50 μM, without B02 53±11): 12±4
- sensitivity to cisDDP (cisplatin) and MMC (MEF cells; B02 5 μM): more sensitive
- sensitivity to MMS (MEF cells; B02 5 μM co-treatment with MMS): enhancement of sensitivity
- sensitivity to MMS (MEF cells; B02 5 μM plus AZD2281 1 μM versus AZD2281 only): more sensitive
- increase in sensitivity to MMC (MEF cells; B02 5 μM, MMC 1 μM): fivefold
- increase in sensitivity to cisplatin (MEF cells; B02 5 μM, cisplatin 32 μM): approximately 17 fold
- cellular viability, B02 alone (MEF cells; up to 5 μM, wild type MEF): No decrease of cellular viability; also recorded: did not have a substantial effect
